Experiments:
[1] = target: T1, Dual specificity tyrosine-phosphorylation-regulated kinase 1B (Homo sapiens, UniProt Q9Y463); assay: Inhibition of DYRK1B (unknown origin) measured after 6 hrs in presence of ATP by Z'-LYTE assay
[2] = test system: CAL-27; assay: Induction of apoptosis in human CAL-27 cells assessed as BCL-xL level at 10 uM after 24 hrs by Immunoblot analysis relative to control; format: functional
[3] = test system: CAL-27; assay: Induction of apoptosis in human CAL-27 cells assessed as PARP level at 10 uM after 24 hrs by Immunoblot analysis relative to control; format: functional
[4] = test system: CAL-27; assay: Induction of apoptosis in human CAL-27 cells assessed as PARP level at 1 uM after 24 hrs by Immunoblot analysis relative to control; format: functional
[5] = test system: CAL-27; assay: Induction of apoptosis in human CAL-27 cells assessed as increase in cleaved-PARP level at 10 uM after 24 hrs by Immunoblot analysis relative to control; format: functional
[6] = test system: CAL-27; assay: Induction of apoptosis in human CAL-27 cells assessed as increase in cleaved-PARP level at 1 uM after 24 hrs by Immunoblot analysis relative to control; format: functional
[7] = test system: CAL-27; assay: Induction of apoptosis in human CAL-27 cells assessed as BCL-xL level at 1 uM after 24 hrs by Immunoblot analysis relative to control; format: functional
[8] = target: T1, Dual specificity tyrosine-phosphorylation-regulated kinase 1B; assay: Inhibition of DYRK1B (unknown origin) at 1 uM by kinomescan method

T1 sequence (Q9Y463 whole entry): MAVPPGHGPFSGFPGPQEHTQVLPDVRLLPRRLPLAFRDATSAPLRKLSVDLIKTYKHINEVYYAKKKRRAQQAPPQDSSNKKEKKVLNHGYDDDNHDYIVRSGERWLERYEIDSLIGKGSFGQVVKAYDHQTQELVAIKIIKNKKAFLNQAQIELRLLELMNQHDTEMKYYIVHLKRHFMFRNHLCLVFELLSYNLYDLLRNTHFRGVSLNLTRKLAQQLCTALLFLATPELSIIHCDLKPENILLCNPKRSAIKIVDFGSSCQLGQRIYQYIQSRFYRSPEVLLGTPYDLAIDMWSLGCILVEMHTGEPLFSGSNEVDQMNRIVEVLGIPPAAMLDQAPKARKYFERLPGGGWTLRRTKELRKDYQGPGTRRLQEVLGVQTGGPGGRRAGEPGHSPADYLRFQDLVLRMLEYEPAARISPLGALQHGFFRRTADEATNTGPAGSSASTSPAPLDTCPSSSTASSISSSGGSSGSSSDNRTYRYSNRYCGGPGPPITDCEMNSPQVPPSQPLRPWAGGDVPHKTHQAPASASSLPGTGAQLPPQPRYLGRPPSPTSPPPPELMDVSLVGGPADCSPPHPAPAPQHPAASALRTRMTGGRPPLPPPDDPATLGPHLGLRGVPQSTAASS

Compound | IC50 [1] | IC50 [8] | Activity [2] | Activity [3] | Activity [4] | Activity [5] | Activity [6] | Activity [7]
CN1Cc2nn(C)cc2-c2cnc3[nH]cc(c3c2)-c2cnn(c2)CCCCC1=O | 150 nM |  |  |  |  |  |  | 
COc1c2c(nn1C)CN(C(C)C)C(=O)CCCn1cc(c(C(F)(F)F)n1)-c1c(C)[nH]c3ncc-2cc13 |  |  | 61% | 117% | 113% | 145% | 119% | 79%
COc1c2c(nn1C)CN(C(C)C)C(=O)CCCn1cc(c(C(F)(F)F)n1)-c1c[nH]c3ncc-2cc13 |  |  | 84% | 112% | 110% | 538% | 140% | 130%

Continued, in another order:

IC50 [1] | IC50 [8] | Compound | Activity [2] | Activity [3] | Activity [4] | Activity [5] | Activity [6] | Activity [7]
18 nM |  | CN1Cc2nn(C)c(C#N)c2-c2cnc3[nH]cc(c3n2)-c2cn(nc2C(F)(F)F)CCCC1=O |  |  |  |  |  | 
70 nM | 19 nM | CN1Cc2nn(C)cc2-c2cnc3[nH]cc(c3c2)-c2cnn(c2)CCCC1=O |  |  |  |  |  | 
929 nM |  | CN1Cc2nn(C)c(C#N)c2-c2cnc3[nH]nc(c3c2)-c2cn(nc2C(F)(F)F)CCCC1=O |  |  |  |  |  | 
